In US9993494B2, “Compositions and methods for treating fibrotic disease” (eFFECTOR Therapeutics, Inc., priority 2014, dated 2018):

Tested on: normal human lung fibroblasts
Assay: Ribosomal profiling: translational efficiency in TGFβ-treated fibroblasts
Assay type: cell-based
Procedure, shortened: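 Genome-wide RPF and total RNA libraries (ARTseq, RNA-Seq) were made from lysates of cycloheximide-treated, PBS-washed cells. After trimming and human-genome mapping, per-gene coding-region counts were compared between RPF and RNA for translational efficiency. Genes scoring low in either fraction were dropped.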

## TGFβ
ENSG00000115392, 5 replicates
  Log2 TE FANCL: −1.233
ENSG00000115594, 5 replicates
  Log2 TE IL1R1: −1.003
ENSG00000117461, 5 replicates
  Log2 TE PIK3R3: −1.0571
ENSG00000117543, 5 replicates
  Log2 TE DPH5: 1.114
ENSG00000117543, Control vs. TGFβ
  change in translational profile of DPH5 caused by TGFβ: D (D = <1.0 to 1.5)
ENSG00000117724, 5 replicates
  Log2 TE CENPF: −1.237
ENSG00000118181, 5 replicates
  Log2 TE RPS25: 1.697
ENSG00000118473, 5 replicates
  Log2 TE SGIP1: −2.768
ENSG00000118898, 5 replicates
  Log2 TE PPL: −1.54
ENSG00000118898, Control vs. TGFβ
  change in translational profile of PPL caused by TGFβ: B (B = <−1.5 to −2.5)
ENSG00000119508, 5 replicates
  Log2 TE NR4A3: −1.931
ENSG00000120156, 5 replicates
  Log2 TE TEK: −1.652
ENSG00000120278, Control vs. TGFβ
  change in translational profile of PLEKHG1 caused by TGFβ: B (B = <−1.5 to −2.5)
ENSG00000121897, Control vs. TGFβ
  change in translational profile of LIAS caused by TGFβ: D (D = <1.0 to 1.5)
ENSG00000121957, 5 replicates
  Log2 TE GPSM2: −1.408
ENSG00000121957, Control vs. TGFβ
  change in translational profile of GPSM2 caused by TGFβ: B (B = <−1.5 to −2.5)
ENSG00000122026, Control vs. TGFβ
  change in translational profile of RPL21 caused by TGFβ: E (E = <1.5 to 2.5)
ENSG00000122406, 5 replicates
  Log2 TE RPL5: 1.593
ENSG00000122406, Control vs. TGFβ
  change in translational profile of RPL5 caused by TGFβ: E (E = <1.5 to 2.5)
ENSG00000122641, Control vs. TGFβ
  change in translational profile of INHBA caused by TGFβ: D (D = <1.0 to 1.5)
ENSG00000122966, 5 replicates
  Log2 TE CIT: −3.084
ENSG00000122966, Control vs. TGFβ
  change in translational profile of CIT caused by TGFβ: A (A = <−2.5)
ENSG00000124406, 5 replicates
  Log2 TE ATP8A1: −2.122
ENSG00000124496, 5 replicates
  Log2 TE TRERF1: −1.891
ENSG00000124614, 5 replicates
  Log2 TE RPS10: 1.211
ENSG00000124749, 5 replicates
  Log2 TE COL21A1: −1.445
ENSG00000125375, 5 replicates
  Log2 TE ATP5S: 1.075
ENSG00000125691, 5 replicates
  Log2 TE RPL23: 1.604
ENSG00000125691, Control vs. TGFβ
  change in translational profile of RPL23 caused by TGFβ: E (E = <1.5 to 2.5)
ENSG00000125744, 5 replicates
  Log2 TE RTN2: −1.143
ENSG00000125869, 5 replicates
  Log2 TE LAMP5: 1.298
ENSG00000125869, Control vs. TGFβ
  change in translational profile of LAMP5 caused by TGFβ: E (E = <1.5 to 2.5)
ENSG00000125967, 5 replicates
  Log2 TE NECAB3: 1.403
ENSG00000125967, Control vs. TGFβ
  change in translational profile of NECAB3 caused by TGFβ: E (E = <1.5 to 2.5)
ENSG00000127184, Control vs. TGFβ
  change in translational profile of COX7C caused by TGFβ: D (D = <1.0 to 1.5)
ENSG00000127863, 5 replicates
  Log2 TE TNFRSF19: −1.093
ENSG00000128016, 5 replicates
  Log2 TE ZFP36: 1.188
ENSG00000128342, Control vs. TGFβ
  change in translational profile of LIF caused by TGFβ: D (D = <1.0 to 1.5)
ENSG00000128394, 5 replicates
  Log2 TE APOBEC3F: −1.127
ENSG00000128602, 5 replicates
  Log2 TE SMO: −1.254
ENSG00000128849, 5 replicates
  Log2 TE CGNL1: −1.023
ENSG00000129226, 5 replicates
  Log2 TE CD68: 1.048
ENSG00000129422, 5 replicates
  Log2 TE MTUS1: −1.149
ENSG00000129422, Control vs. TGFβ
  change in translational profile of MTUS1 caused by TGFβ: B (B = <−1.5 to −2.5)
ENSG00000129675, 5 replicates
  Log2 TE ARHGEF6: −1.1
ENSG00000129675, Control vs. TGFβ
  change in translational profile of ARHGEF6 caused by TGFβ: C (C = <−1.0 to −1.5)
ENSG00000130255, 5 replicates
  Log2 TE RPL36: 1.411
ENSG00000130255, Control vs. TGFβ
  change in translational profile of RPL36 caused by TGFβ: E (E = <1.5 to 2.5)
ENSG00000130513, Control vs. TGFβ
  change in translational profile of GDF15 caused by TGFβ: D (D = <1.0 to 1.5)
ENSG00000130707, Control vs. TGFβ
  change in translational profile of ASS1 caused by TGFβ: D (D = <1.0 to 1.5)
ENSG00000130741, 5 replicates
  Log2 TE EIF2S3: 1.067
ENSG00000130741, Control vs. TGFβ
  change in translational profile of EIF2S3 caused by TGFβ: D (D = <1.0 to 1.5)
ENSG00000131469, 5 replicates
  Log2 TE RPL27: 1.519
ENSG00000131469, Control vs. TGFβ
  change in translational profile of RPL27 caused by TGFβ: E (E = <1.5 to 2.5)
ENSG00000131747, 5 replicates
  Log2 TE TOP2A: −1.314
ENSG00000132031, 5 replicates
  Log2 TE MATN3: 1.34
ENSG00000132031, Control vs. TGFβ
  change in translational profile of MATN3 caused by TGFβ: D (D = <1.0 to 1.5)
ENSG00000132122, 5 replicates
  Log2 TE SPATA6: −1.925
ENSG00000132170, 5 replicates
  Log2 TE PPARG: −3.52
ENSG00000132170, Control vs. TGFβ
  change in translational profile of PPARG caused by TGFβ: A (A = <−2.5)
ENSG00000132510, 5 replicates
  Log2 TE KDM6B: 1.603
ENSG00000132510, Control vs. TGFβ
  change in translational profile of KDM6B caused by TGFβ: E (E = <1.5 to 2.5)
ENSG00000133321, 5 replicates
  Log2 TE RARRES3: −1.995
ENSG00000133321, Control vs. TGFβ
  change in translational profile of RARRES3 caused by TGFβ: B (B = <−1.5 to −2.5)
ENSG00000133687, 5 replicates
  Log2 TE TMTC1: −1.907
ENSG00000134419, 5 replicates
  Log2 TE RPS15A: 2.195
ENSG00000134532, 5 replicates
  Log2 TE SOX5: −1.667
ENSG00000134897, Control vs. TGFβ
  change in translational profile of BIVM caused by TGFβ: B (B = <−1.5 to −2.5)
ENSG00000135390, 5 replicates
  Log2 TE ATP5G2: 1.381
ENSG00000135390, Control vs. TGFβ
  change in translational profile of ATP5G2 caused by TGFβ: E (E = <1.5 to 2.5)
ENSG00000135480, 5 replicates
  Log2 TE KRT7: 2
ENSG00000135480, Control vs. TGFβ
  change in translational profile of KRT7 caused by TGFβ: E (E = <1.5 to 2.5)
ENSG00000135486, 5 replicates
  Log2 TE HNRNPA1: 1.086
ENSG00000135486, Control vs. TGFβ
  change in translational profile of HNRNPA1 caused by TGFβ: D (D = <1.0 to 1.5)
ENSG00000135749, 5 replicates
  Log2 TE PCNXL2: −1.261
ENSG00000136040, 5 replicates
  Log2 TE PLXNC1: −1.0996
ENSG00000136244, 5 replicates
  Log2 TE IL6: 1.369
ENSG00000136244, Control vs. TGFβ
  change in translational profile of IL6 caused by TGFβ: E (E = <1.5 to 2.5)
ENSG00000136942, 5 replicates
  Log2 TE RPL35: 1.28
ENSG00000136942, Control vs. TGFβ
  change in translational profile of RPL35 caused by TGFβ: E (E = <1.5 to 2.5)
ENSG00000136999, Control vs. TGFβ
  change in translational profile of NOV caused by TGFβ: C (C = <−1.0 to −1.5)
ENSG00000137033, 5 replicates
  Log2 TE IL33: −2.488
ENSG00000137154, 5 replicates
  Log2 TE RPS6: 1.598
ENSG00000137331, 5 replicates
  Log2 TE IER3: 1.702
ENSG00000137331, Control vs. TGFβ
  change in translational profile of IER3 caused by TGFβ: E (E = <1.5 to 2.5)
ENSG00000137628, 5 replicates
  Log2 TE DDX60: −1.211
ENSG00000137628, Control vs. TGFβ
  change in translational profile of DDX60 caused by TGFβ: C (C = <−1.0 to −1.5)
ENSG00000137818, 5 replicates
  Log2 TE RPLP1: 1.461
ENSG00000137818, Control vs. TGFβ
  change in translational profile of RPLP1 caused by TGFβ: E (E = <1.5 to 2.5)
ENSG00000137819, 5 replicates
  Log2 TE PAQR5: −1.445
ENSG00000137819, Control vs. TGFβ
  change in translational profile of PAQR5 caused by TGFβ: B (B = <−1.5 to −2.5)
ENSG00000138134, 5 replicates
  Log2 TE STAMBPL1: −1.139
ENSG00000138182, 5 replicates
  Log2 TE KIF20B: −1.281
ENSG00000138326, 5 replicates
  Log2 TE RPS24: 1.444
ENSG00000138336, 5 replicates
  Log2 TE TET1: 1.853
ENSG00000138356, 5 replicates
  Log2 TE AOX1: −1.143
ENSG00000138356, Control vs. TGFβ
  change in translational profile of AOX1 caused by TGFβ: B (B = <−1.5 to −2.5)
ENSG00000138386, 5 replicates
  Log2 TE NAB1: −1.01
ENSG00000138449, 5 replicates
  Log2 TE SLC40A1: 1.114
ENSG00000138675, 5 replicates
  Log2 TE FGF5: −1.163
ENSG00000138675, Control vs. TGFβ
  change in translational profile of FGF5 caused by TGFβ: B (B = <−1.5 to −2.5)
ENSG00000138735, 5 replicates
  Log2 TE PDE5A: −1.594
ENSG00000138735, Control vs. TGFβ
  change in translational profile of PDE5A caused by TGFβ: B (B = <−1.5 to −2.5)
ENSG00000139132, 5 replicates
  Log2 TE FGD4: −1.142
ENSG00000139209, 5 replicates
  Log2 TE SLC38A4: −1.142
ENSG00000139354, 5 replicates
  Log2 TE GAS2L3: −2.342
ENSG00000139354, Control vs. TGFβ
  change in translational profile of GAS2L3 caused by TGFβ: A (A = <−2.5)
ENSG00000139372, 5 replicates
  Log2 TE TDG: 1.025
ENSG00000139734, 5 replicates
  Log2 TE DIAPH3: 1.659
ENSG00000139734, Control vs. TGFβ
  change in translational profile of DIAPH3 caused by TGFβ: E (E = <1.5 to 2.5)
ENSG00000140988, 5 replicates
  Log2 TE RPS2: 1.607
ENSG00000141140, Control vs. TGFβ
  change in translational profile of MYO19 caused by TGFβ: D (D = <1.0 to 1.5)
ENSG00000141837, 5 replicates
  Log2 TE CACNA1A: −1.055
ENSG00000142534, 5 replicates
  Log2 TE RPS11: 1.314
ENSG00000142541, 5 replicates
  Log2 TE RPL13A: 1.797
ENSG00000142541, Control vs. TGFβ
  change in translational profile of RPL13A caused by TGFβ: E (E = <1.5 to 2.5)
ENSG00000142676, 5 replicates
  Log2 TE RPL11: 1.396
ENSG00000142676, Control vs. TGFβ
  change in translational profile of RPL11 caused by TGFβ: E (E = <1.5 to 2.5)
